# According to ChEMBL document CHEMBL3621110, “Discovery and Development of the Aryl O-Sulfamate Pharmacophore for Oncology and Women's Health” (J Med Chem, 2015):
# How the values were obtained:
# Rattus norvegicus [1] = organism: Rattus norvegicus; test: animal or person; assay type: functional; details: Liver, po, 168 h
# Rattus norvegicus [2] = organism: Rattus norvegicus; test: animal or person; assay type: functional; details: Liver, po, 120 h
# Steryl-sulfatase [3] = target: T1, Steryl-sulfatase (Homo sapiens, UniProt P08842); assay type: microsomes, Placenta, Microsome
# T1 sequence (P08842 whole entry): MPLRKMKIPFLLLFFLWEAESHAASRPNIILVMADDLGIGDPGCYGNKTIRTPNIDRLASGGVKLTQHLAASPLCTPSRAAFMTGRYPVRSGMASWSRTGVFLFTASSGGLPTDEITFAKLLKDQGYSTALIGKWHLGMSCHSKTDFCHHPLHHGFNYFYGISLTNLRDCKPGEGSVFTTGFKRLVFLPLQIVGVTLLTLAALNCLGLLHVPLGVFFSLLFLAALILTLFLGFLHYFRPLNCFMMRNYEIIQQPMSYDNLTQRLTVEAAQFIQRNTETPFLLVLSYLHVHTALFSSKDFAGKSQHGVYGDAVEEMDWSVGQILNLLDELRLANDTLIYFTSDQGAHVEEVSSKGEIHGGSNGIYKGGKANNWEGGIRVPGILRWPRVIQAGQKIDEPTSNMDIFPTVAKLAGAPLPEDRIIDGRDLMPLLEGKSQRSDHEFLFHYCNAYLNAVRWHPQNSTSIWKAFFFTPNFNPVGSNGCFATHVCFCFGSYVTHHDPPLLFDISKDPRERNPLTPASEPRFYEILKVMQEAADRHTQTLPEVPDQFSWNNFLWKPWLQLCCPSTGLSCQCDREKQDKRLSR
# MCF7 [4] = test: cells; assay type: functional; details: Homo sapiens
# cells [5] = assay type: functional, cell-based; details: Homo sapiens, A2780 ADR
# A2780cisR = test: cells; assay type: functional, cell-based; details: Homo sapiens
# LNCaP = test: cells; assay type: functional, cell-based; details: Homo sapiens
# cells [6] = assay type: functional, cell-based; details: Homo sapiens, PC-3
# MDA-MB-231 [7] = test: cells; assay type: functional; details: Homo sapiens
# in vivo [8] = details: MF1, mouse
# in vivo [9] = details: mouse, po, 10 mg/kg
# MDA-MB-231 [10] = test: animal or person; assay type: functional, Homo sapiens; details: Mus musculus
# in vivo [11] = details: MF1, mouse; remark: listed apart in the source
# MCF7 [12] = test: animal or person; assay type: functional, Homo sapiens; details: Mus musculus, MCF7, po
# in vivo [13] = details: MF1, mouse; remark: listed apart in the source
# MDA-MB-231 [14] = test: animal or person; assay type: functional, Homo sapiens; details: Mus musculus; remark: listed apart in the source
# MCF7 [15] = test: animal or person; assay type: functional, Homo sapiens; details: Mus musculus, MCF7, po; remark: listed apart in the source
# in vivo [16] = details: MF1, mouse; remark: listed apart in the source
# 4T1 [17] = test: animal or person; assay type: functional; details: Mus musculus
# 4T1 [18] = test: animal or person; assay type: functional; details: Mus musculus; remark: listed apart in the source
# Steryl-sulfatase [19] = target: T1, Steryl-sulfatase; set-up: species or system Placenta, Microsome
# Cytochrome P450 1A2 = target: T2, Cytochrome P450 1A2 (Homo sapiens, UniProt P05177)
# T2 sequence (P05177 whole entry): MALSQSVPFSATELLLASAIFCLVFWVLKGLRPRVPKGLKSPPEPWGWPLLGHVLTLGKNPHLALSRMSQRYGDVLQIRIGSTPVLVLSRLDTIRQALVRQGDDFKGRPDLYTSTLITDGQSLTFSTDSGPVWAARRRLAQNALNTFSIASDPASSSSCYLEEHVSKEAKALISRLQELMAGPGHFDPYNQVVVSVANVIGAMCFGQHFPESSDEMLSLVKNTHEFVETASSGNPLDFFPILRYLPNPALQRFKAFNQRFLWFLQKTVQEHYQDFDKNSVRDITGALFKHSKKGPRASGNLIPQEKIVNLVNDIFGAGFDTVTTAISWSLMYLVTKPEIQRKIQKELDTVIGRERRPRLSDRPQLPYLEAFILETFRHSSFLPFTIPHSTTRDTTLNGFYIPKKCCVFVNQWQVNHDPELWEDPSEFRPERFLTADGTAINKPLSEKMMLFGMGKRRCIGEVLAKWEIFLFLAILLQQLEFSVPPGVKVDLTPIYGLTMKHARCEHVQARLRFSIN
smiles,measurement,setting,value
Cc1cc(=O)oc2cc(OS(N)(=O)=O)ccc12,inhibition in vivo at 10 mg/kg/day,Rattus norvegicus [1],85%
C[C@]12CC[C@@H]3c4ccc(OS(N)(=O)=O)cc4CC[C@H]3[C@@H]1CC(=O)N(Cc1cccnc1)C2=O,inhibition in vivo at 10 mg/kg/day,Rattus norvegicus [2],99%
same,IC50,Steryl-sulfatase [3],1 nM
CCc1cc2c(cc1OS(N)(=O)=O)CC[C@@H]1[C@@H]2CC[C@]2(C)C(=O)CC[C@@H]12,GI50,MCF7 [4],340 nM
same,IC50,cells [5],100 nM
same,IC50,A2780cisR,100 nM
same,IC50,LNCaP,100 nM
same,IC50,cells [6],100 nM
C[C@]12CC[C@@H]3c4ccc(OS(N)(=O)=O)c(Br)c4CC[C@H]3[C@@H]1CCC2=O,GI50,MCF7 [4],42 nM
COc1cccc(CN2Cc3cc(OC)c(OS(N)(=O)=O)cc3CC2C)c1 (stereo unspecified),GI50,MDA-MB-231 [7],234 nM
COc1cc2c(cc1OS(N)(=O)=O)CC[C@@H]1[C@@H]2CC[C@]2(C)[C@@H](OS(N)(=O)=O)CC[C@@H]12,LD50,in vivo [8],80 mg/kg
same,bioavailability at 24 h,in vivo [9],85%
same,ED50,MDA-MB-231 [10],10 mg/kg
same,LD50,in vivo [11],30 mg/kg
same,inhibition in vivo at 20 mg/kg,MCF7 [12],52%
same,selectivity ratio,in vivo [13],3
same,ED50,MDA-MB-231 [14],20 mg/kg
same,inhibition in vivo at 5 mg/kg,MCF7 [15],46%
same,selectivity ratio,in vivo [16],4
same,inhibition in vivo at 20 mg/kg/day,4T1 [17],35%
same,inhibition in vivo at 20 mg/kg/day,4T1 [18],80.4%
NS(=O)(=O)Oc1ccc2c3c(c(=O)oc2c1)CCC3,IC50,Steryl-sulfatase [19],200 nM
NS(=O)(=O)Oc1ccc2c3c(c(=O)oc2c1)CCCC3,IC50,Steryl-sulfatase [19],70 nM
NS(=O)(=O)Oc1ccc2c3c(c(=O)oc2c1)CCCCCC3,IC50,Steryl-sulfatase [19],30 nM
NS(=O)(=O)Oc1ccc2c3c(c(=O)oc2c1)CCCCCCC3,IC50,Steryl-sulfatase [19],2.4 nM
NS(=O)(=O)Oc1ccc2c3c(c(=O)oc2c1)CCCCCCCC3,IC50,Steryl-sulfatase [19],1 nM
NS(=O)(=O)Oc1ccc2c3c(c(=O)oc2c1)CCCCCCCCCC3,IC50,Steryl-sulfatase [19],60 nM
NS(=O)(=O)Oc1ccc2c3c(c(=O)oc2c1)CCCCCCCCCCC3,IC50,Steryl-sulfatase [19],75 nM
NS(=O)(=O)Oc1ccc2c3c(c(=O)oc2c1)CCCCCCCCCCCCC3,IC50,Steryl-sulfatase [19],370 nM
O=c1oc2cc(O)ccc2c2c1CCCCC2,Ki,Cytochrome P450 1A2,770 nM
C[C@]12CC[C@@H]3c4ccc(OS(N)(=O)=O)cc4CC[C@H]3[C@@H]1CC(=O)NC2=O,IC50,Steryl-sulfatase [3],20 nM
CN1C(=O)C[C@H]2[C@@H]3CCc4cc(OS(N)(=O)=O)ccc4[C@H]3CC[C@]2(C)C1=O,IC50,Steryl-sulfatase [3],12 nM
CCN1C(=O)C[C@H]2[C@@H]3CCc4cc(OS(N)(=O)=O)ccc4[C@H]3CC[C@]2(C)C1=O,IC50,Steryl-sulfatase [3],52 nM
CCCCN1C(=O)C[C@H]2[C@@H]3CCc4cc(OS(N)(=O)=O)ccc4[C@H]3CC[C@]2(C)C1=O,IC50,Steryl-sulfatase [3],382 nM
CCCCCCN1C(=O)C[C@H]2[C@@H]3CCc4cc(OS(N)(=O)=O)ccc4[C@H]3CC[C@]2(C)C1=O,IC50,Steryl-sulfatase [3],288 nM
CC(C)(C)c1ccc(CN2C(=O)C[C@H]3[C@@H]4CCc5cc(OS(N)(=O)=O)ccc5[C@H]4CC[C@]3(C)C2=O)cc1,IC50,Steryl-sulfatase [3],23 nM
